Test results: patent publication US20050192547A1, “Combinations of antiseptic and antibiotic agents containing medical devices” (priority 2002, published 2005)
Values after ≈ are worked out from the molar mass of the structure shown. Like-named read-outs stand apart in the source and are kept apart here.

Key:
S. epidermidis [1] = assay: Minimum inhibitory concentration in Trypticase Soy Broth, synergy (fractional inhibitory concentration); format: cell-based, Staphylococcus epidermidis
S. epidermidis [2] = assay: microbe, parasite or virus in culture; format: cell-based, Staphylococcus epidermidis; details: for MIC: Staphylococcus epidermidis
[3] = tetrahydrofuran/methanol solvent systems
[4] = Staphylococcus epidermidis, inoculum of 10^4 cfu/ml, read-out: MIC
[5] = after 10-20 passages, inoculum 10^4 cfu/ml
[6] = after 10 transfers, inoculum 10^6 cfu/ml

CC(=O)O.CC(=O)O.NC(=N\CCCCCC/N=C(N)/N=C(\N)Nc1ccc(Cl)cc1)/N=C(\N)Nc1ccc(Cl)cc1 [Chlorhexidine (CHX), chlorhexidine diacetate]
MIC (S. epidermidis [1]; inoculum of 10^4 cfu/ml): 0.5 µg/mL
INCREASE IN MIC (S. epidermidis [2]): 2 fold
MIC AFTER PASSAGE (S. epidermidis [2]): 1.0 µg/mL
MIC BEFORE PASSAGE (S. epidermidis [2]): 0.5 µg/mL

CN(C)c1ccc(O)c2c1C[C@H]1C[C@H]3[C@H](N(C)C)C(O)=C(C(N)=O)C(=O)[C@@]3(O)C(O)=C1C2=O [Minocycline (M), minocycline]
MIC (S. epidermidis [1]; [4]): 0.078 µg/mL
MIC (S. epidermidis [2]; read-out: MIC AFTER PASSAGE): 0.156 µg/mL (≈ 0.341 µM)
INCREASE IN MIC (S. epidermidis [2]; [5]): 2 fold
INCREASE IN MIC (S. epidermidis [2]; [6]): 4 fold

CCn1cc(C(=O)O)c(=O)c2cc(F)c(N3CCNCC3)cc21 [Norfloxacin (Nf), norfloxacin]
MIC (S. epidermidis [1]; [4]): 0.05 µg/mL
MIC (S. epidermidis [2]; read-out: MIC AFTER PASSAGE): 2 µg/mL (≈ 6.26 µM)
INCREASE IN MIC (S. epidermidis [2]; [5]): 40 fold
upper limit incorporated owing to low solubility [3]: about 0.5 percent (w/v)

CO[C@H]1/C=C/O[C@@]2(C)Oc3c(C)c(O)c4c(O)c(c(/C=N/N5CCN(C)CC5)c(O)c4c3C2=O)NC(=O)/C(C)=C\C=C\[C@H](C)[C@H](O)[C@@H](C)[C@@H](O)[C@@H](C)[C@H](OC(C)=O)[C@@H]1C [Rifampin (R), rifampin]
MIC (S. epidermidis [2]; read-out: MIC AFTER PASSAGE): 500 µg/mL (≈ 608 µM)
MIC (S. epidermidis [2]; read-out: MIC BEFORE PASSAGE): 0.0195 µg/mL (≈ 0.0237 µM)
INCREASE IN MIC (S. epidermidis [2]; [5]): 25,000 fold

NC[C@H]1O[C@H](O[C@H]2[C@H](O)[C@@H](O[C@H]3O[C@H](CO)[C@@H](O)[C@H](N)[C@H]3O)[C@H](N)C[C@@H]2N)[C@H](N)C[C@@H]1O [Tobramycin (Tb), tobramycin]
MIC (S. epidermidis [2]; read-out: MIC AFTER PASSAGE): 0.5 µg/mL (≈ 1.07 µM)
MIC (S. epidermidis [2]; read-out: MIC BEFORE PASSAGE): 0.025 µg/mL (≈ 0.0535 µM)
INCREASE IN MIC (S. epidermidis [2]; [5]): 20 fold

Oc1cc(Cl)ccc1Oc1ccc(Cl)cc1Cl [Triclosan (T), triclosan]
MIC (S. epidermidis [1]; Staphylococcus epidermidis): 0.35 µg/mL
MIC (S. epidermidis [2]; read-out: MIC AFTER PASSAGE): 2.5 µg/mL (≈ 8.63 µM)
MIC (S. epidermidis [2]; read-out: MIC BEFORE PASSAGE): 0.35 µg/mL (≈ 1.21 µM)
INCREASE IN MIC (S. epidermidis [2]; [5]): 7 fold
INCREASE IN MIC (S. epidermidis [2]; [6]): 7 fold

polyhexamethylenebiguanide [PHMB]
INCREASE IN MIC (S. epidermidis [2]): 1.0 fold
MIC AFTER PASSAGE (S. epidermidis [2]): 0.31 µg/mL
MIC BEFORE PASSAGE (S. epidermidis [2]): 0.31 µg/mL
